Results taken from patent US20250161476A1 (REGENERON PHARMACEUTICALS, INC., priority 2020, published 2025).
pEC50: −log10 of the molar value.

Tests used:
[1] = system: Salmonella typhimurium TA98 and TA100; test: Mini-Ames reverse mutation assay with and without S9 mix; type: cell-based
Protocol: The objective of this Mini-Ames study was to evaluate the test article LP11, for its ability to induce reverse mutations in the genome of strains of Salmonella typhimurium TA98 and TA100 in the presence and absence of metabolic activation (S9 mixture).
The Mini-Ames assay was conducted for the test article in the presence and absence of the S9 mixture, concurrently with the negative/solvent control (DMSO) using six wells and positive controls (2 μg/well TA98 alone, 0.2 μg/well TA100 alone or 0.4 μg/well TA98+TA100 in the presence of S9) using three wells. The tested dose levels for the test article, in the presence and absence of S9 mix, were 1000, 400, 160, 64, 25, 10, 4, and 1.5 μg per well, with each dose tested in triplicate. The study was conducted using fresh cultures of the bacterial strains and fresh test article formulations.

[2] = Plasma stability of payloads and linker-payloads, mouse plasma; type: in vitro ADME; conditions: assay time 3 days
Protocol: (§1) The plasma stability of payloads and linker payloads of the disclosure were measured. For the assay, pooled frozen plasma (human, mouse or monkey) was thawed in cold water or a 37° C. water bath prior to experiment. Plasma was centrifuged at 4000 rpm for 5 min if any clots were observed, they were subsequently removed. If required, the pH was adjusted to 7.4±0.1. For the preparation of compounds and positive controls, a 1 mM intermediate solution was prepared by diluting 10 μL of their stock solution with 90 μL DMSO; a 1 mM intermediate solution of the positive control (Propantheline) was prepared by diluting 10 μL of its stock solution with 90 μL ultrapure water. Subsequently, 100 μM dosing solution for each compound was prepared by diluting 20 μL of the intermediate solution (1 mM) with 180 μL 45% MeOH/H2O. 98 μL of plasma was spiked with 2 μL of dosing solution (100 μM) to achieve the final concentration of 2 μM in duplicate. Samples were then incubated at 37° C. in a water bath. […] At each time point, 400 μL of stop solution (200 ng/mL tolbutamide plus 200 ng/mL labetalol in 50% ACN/MeOH) was added to precipitate protein and mixed thoroughly. Sample plates were then centrifuged at 4,000 rpm for 10 min. An aliquot of supernatant (50 μL) was transferred from each well and mixed with 100 μL ultra-pure water. […]

[3] = Plasma stability of payloads and linker-payloads, monkey plasma; type: in vitro ADME; conditions: assay time 3 days
Protocol: as §1

[4] = molecular target: human glucagon-like peptide 2 receptor (GLP2R) (Homo sapiens (Human), UniProt O95838); test: CRE-luciferase reporter bioassay, HEK293/Myc-hGLP2R/Cre-Luc cell line; type: cell-based; conditions: GLP2R
Chain of human glucagon-like peptide 2 receptor (GLP2R) (O95838 whole entry): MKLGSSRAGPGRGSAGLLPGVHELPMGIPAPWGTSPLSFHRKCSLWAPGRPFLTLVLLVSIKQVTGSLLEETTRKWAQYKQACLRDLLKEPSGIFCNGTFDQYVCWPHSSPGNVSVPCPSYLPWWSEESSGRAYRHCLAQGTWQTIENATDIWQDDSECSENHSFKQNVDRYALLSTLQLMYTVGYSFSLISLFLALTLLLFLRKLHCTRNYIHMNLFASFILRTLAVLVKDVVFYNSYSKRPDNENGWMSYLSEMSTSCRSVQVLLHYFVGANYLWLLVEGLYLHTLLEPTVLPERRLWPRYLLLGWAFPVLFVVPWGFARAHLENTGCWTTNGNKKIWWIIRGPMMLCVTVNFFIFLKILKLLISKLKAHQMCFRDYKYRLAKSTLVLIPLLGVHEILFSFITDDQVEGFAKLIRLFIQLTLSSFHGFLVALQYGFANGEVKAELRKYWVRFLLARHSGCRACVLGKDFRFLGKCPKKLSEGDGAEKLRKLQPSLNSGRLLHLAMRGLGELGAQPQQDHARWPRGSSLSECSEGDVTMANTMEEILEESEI
Protocol: (§2) Cells were incubated overnight at 37° C. in 5% CO2. […] Plates were incubated for 5.5 h at 37° C. in 5% CO2. For end-point measurement, 100 μL/well of One-Glo reagent (Promega, #E6051) was added and plates were kept at room temperature for 5-10 minutes. Luciferase activity was measured on Envision Multilabel Plate Reader (Perkin Elmer) in Luminescent mode. The relative light units (RLU) values were obtained and the results were analyzed using nonlinear regression with GraphPad Prism software (GraphPad).

[5] = system: HEK293/CRE-Luc cells; test: cAMP responsive luciferase reporter assay, HEK293/CRE-Luc cells (no hGLP1R expression); type: cell-based, human
In short: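 Counter-screen in HEK293 cells carrying CRE-driven firefly luciferase without hGLP1R; 3-fold serial dilutions of payloads or linker-payloads at 0.2% final DMSO, 4–6 h.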

[6] = molecular target: human gastric inhibitory polypeptide receptor (GIPR) (Homo sapiens (Human), UniProt P48546); test: CRE-luciferase reporter bioassay, HEK293/Myc-hGIPR/Cre-Luc cell line; type: cell-based
Chain of human gastric inhibitory polypeptide receptor (GIPR) (P48546 22-466): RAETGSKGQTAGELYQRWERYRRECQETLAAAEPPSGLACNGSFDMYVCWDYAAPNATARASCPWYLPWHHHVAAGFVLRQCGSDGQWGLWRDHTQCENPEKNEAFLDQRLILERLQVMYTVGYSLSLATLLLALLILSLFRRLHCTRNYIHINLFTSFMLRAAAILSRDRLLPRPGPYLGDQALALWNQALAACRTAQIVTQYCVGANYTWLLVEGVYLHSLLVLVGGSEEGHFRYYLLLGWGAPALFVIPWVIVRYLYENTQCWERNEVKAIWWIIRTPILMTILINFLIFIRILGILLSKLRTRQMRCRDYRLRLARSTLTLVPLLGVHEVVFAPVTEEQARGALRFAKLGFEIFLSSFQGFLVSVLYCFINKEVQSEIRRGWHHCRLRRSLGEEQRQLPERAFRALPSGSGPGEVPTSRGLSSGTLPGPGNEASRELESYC
Protocol: as §2

[7] = Liver microsome stability (intrinsic clearance); type: in vitro ADME; conditions: microsomes
Protocol: To assess the in vitro ADME properties of the LP, microsomal stability assay was performed to determine intrinsic clearance, and plasma protein binding assay was performed to understand the distribution potential.

[8] = human, 4 h, 2 µM
Protocol: An assay was performed to determine the plasma protein binding of compounds of the disclosure. For the assay, on the day of experiment, the plasma was thawed in cold water and centrifuged at 3220 rpm for 5 minutes to remove any clots. The pH value of the resulting plasma was checked
For the dialysis, the test compound and control compound were dissolved in DMSO to achieve 10 mM stock solutions. DMSO working solutions were prepared at 400 μM. To prepare the loading matrix, compound working solutions (5 μL) were added in a 1:200 ratio to blank matrix (995 μL) and mixed thoroughly. To prepare the time zero (TO) samples to be used for recovery determination, 50 μL aliquots of loading matrix were transferred in triplicate to the sample collection plate. The samples were immediately matched with opposite blank buffer to obtain a final volume of 100 μL of 1:1 matrix/dialysis buffer (v/v) in each well. 500 μL of stop solution were added to these TO samples. This was then stored at 2-8° C. pending further processes along with other post-dialysis samples. To load the dialysis device, an aliquot of 150 μL of the loading matrix was transferred to the donor side of each dialysis well in triplicate, and 150 μL of the dialysis buffer was loaded to the receiver side of the well. […]
The percent unbound, percent bound, and percent recovery values were calculated using the following equations: […]

[9] = molecular target: human GLP1R (Homo sapiens (Human), UniProt P43220); test: cAMP responsive luciferase reporter assay, HEK293/CRE-Luc/hGLP1R cells; type: cell-based
Chain of human GLP1R (P43220 24-463): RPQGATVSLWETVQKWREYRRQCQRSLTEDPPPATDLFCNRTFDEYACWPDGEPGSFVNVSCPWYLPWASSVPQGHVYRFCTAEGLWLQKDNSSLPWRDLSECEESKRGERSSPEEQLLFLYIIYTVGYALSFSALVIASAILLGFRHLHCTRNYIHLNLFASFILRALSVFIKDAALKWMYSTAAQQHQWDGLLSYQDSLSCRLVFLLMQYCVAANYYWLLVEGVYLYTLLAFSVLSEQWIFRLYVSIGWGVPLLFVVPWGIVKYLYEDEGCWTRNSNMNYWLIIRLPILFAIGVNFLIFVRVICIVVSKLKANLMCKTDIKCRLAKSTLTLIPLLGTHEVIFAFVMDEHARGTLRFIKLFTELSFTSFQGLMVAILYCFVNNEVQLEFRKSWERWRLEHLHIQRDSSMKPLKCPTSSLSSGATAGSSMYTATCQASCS

[10] = molecular target: human glucagon receptor (GCGR) (Homo sapiens (Human), UniProt P47871); test: CRE-luciferase reporter bioassay, HEK293/Myc-hGCGR/Cre-Luc cell line; type: cell-based
Chain of human glucagon receptor (GCGR) (P47871 26-477): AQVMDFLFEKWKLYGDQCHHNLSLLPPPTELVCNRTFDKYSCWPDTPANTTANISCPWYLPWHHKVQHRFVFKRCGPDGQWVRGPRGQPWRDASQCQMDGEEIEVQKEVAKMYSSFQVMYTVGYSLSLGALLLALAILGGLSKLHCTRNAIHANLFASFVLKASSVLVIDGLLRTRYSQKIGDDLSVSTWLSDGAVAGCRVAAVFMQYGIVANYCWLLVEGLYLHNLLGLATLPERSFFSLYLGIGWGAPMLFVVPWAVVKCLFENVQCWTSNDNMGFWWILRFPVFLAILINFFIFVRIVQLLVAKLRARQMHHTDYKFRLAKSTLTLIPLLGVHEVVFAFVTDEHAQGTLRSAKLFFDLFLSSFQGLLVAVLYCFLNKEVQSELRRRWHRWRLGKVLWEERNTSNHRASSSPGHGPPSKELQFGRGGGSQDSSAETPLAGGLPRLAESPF
Protocol: as §2

[11] = relative to P8 of the same experiment

CCc1cc(OCCCCn2cc(COCCOCCOCCOCCOCCOCCOCCOCCN)nn2)ccc1-c1ccc(C[C@H](NC(=O)[C@H](CC(=O)O)NC(=O)[C@H](CO)NC(=O)[C@@H](NC(=O)C(C)(Cc2ccccc2F)NC(=O)[C@@H](NC(=O)CNC(=O)[C@H](Cc2nn[nH]n2)NC(=O)C(C)(C)C(=O)NCCc2cnc[nH]2)[C@@H](C)O)[C@@H](C)O)C(=O)N[C@@H](CCCc2cc(C)cc(C)c2)C(N)=O)cc1 (some centres unmarked) [LP11, NH2-PEG8-triazole-P8]
cytotoxicity in tester strains ([1]; 1.5-1000 μg per well, with or without S9 mix): no obvious cytotoxicity | mutagenicity ([1]; Mini-Ames conclusion): negative for mutagenicity | Ames (TA98 and TA100) in the presence and absence of S9 ([1]; TA98 and TA100, with and without S9): Negative for | increase in the mean number of revertant colonies relative to negative/solvent control ([1]; TA98 or TA100, any dose level, presence or absence of S9 mix): ≤ 2.0 fold | plasma stability T½ [2]: >140 h | plasma stability T½ [3]: >49.4 h | GLP2R, GIPR, or GCGR EC50 [4]: Completely inactive | pEC50 [5]: < 6.70 | HEK293/CRE-LUC S/N [5]: 1.3 | GLP2R, GIPR, or GCGR EC50 [6]: Completely inactive | CLint(liver) [7]: <8.6 mL/min/kg | T1/2 [7]: >2.42 h | % Recovery [8]: 89.2% | HEK293/CRE-LUC/hGLP1R S/N ([9]; highest RLU / RLU of untreated wells): 74.5 | HEK293/CRE-LUC/hGLP1R Relative Potency (% P8 EC50) [9, 11]: 33.1% | HEK293/CRE-LUC/hGLP1R Relative Signal:Noise (% P8) [9, 11]: 113.3% | GLP2R, GIPR, or GCGR EC50 [10]: Completely inactive
